Molecular target: T1, ΔF508-CFTR (Homo sapiens, UniProt P13569, DEL508-508)
T1 construct: expressed in transfected cells
Test: Membrane potential optical (FRET/VIPR) assay, identification of potentiator compounds
Assay type: cell-based
Conditions: Table 3, assay not given; for % Activity: relative efficacy
Method in brief: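 NIH3T3 mouse fibroblasts stably expressing ΔF508-CFTR, temperature-corrected 24 h at 27° C., read on VIPR by FRET between CC2-DMPE and DiSBAC2(3). Potentiators identified in a double-addition format, first adding chloride-free (gluconate) medium with or without compound.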

T1 sequence (P13569 with tags, fused parts or gaps DEL508-508): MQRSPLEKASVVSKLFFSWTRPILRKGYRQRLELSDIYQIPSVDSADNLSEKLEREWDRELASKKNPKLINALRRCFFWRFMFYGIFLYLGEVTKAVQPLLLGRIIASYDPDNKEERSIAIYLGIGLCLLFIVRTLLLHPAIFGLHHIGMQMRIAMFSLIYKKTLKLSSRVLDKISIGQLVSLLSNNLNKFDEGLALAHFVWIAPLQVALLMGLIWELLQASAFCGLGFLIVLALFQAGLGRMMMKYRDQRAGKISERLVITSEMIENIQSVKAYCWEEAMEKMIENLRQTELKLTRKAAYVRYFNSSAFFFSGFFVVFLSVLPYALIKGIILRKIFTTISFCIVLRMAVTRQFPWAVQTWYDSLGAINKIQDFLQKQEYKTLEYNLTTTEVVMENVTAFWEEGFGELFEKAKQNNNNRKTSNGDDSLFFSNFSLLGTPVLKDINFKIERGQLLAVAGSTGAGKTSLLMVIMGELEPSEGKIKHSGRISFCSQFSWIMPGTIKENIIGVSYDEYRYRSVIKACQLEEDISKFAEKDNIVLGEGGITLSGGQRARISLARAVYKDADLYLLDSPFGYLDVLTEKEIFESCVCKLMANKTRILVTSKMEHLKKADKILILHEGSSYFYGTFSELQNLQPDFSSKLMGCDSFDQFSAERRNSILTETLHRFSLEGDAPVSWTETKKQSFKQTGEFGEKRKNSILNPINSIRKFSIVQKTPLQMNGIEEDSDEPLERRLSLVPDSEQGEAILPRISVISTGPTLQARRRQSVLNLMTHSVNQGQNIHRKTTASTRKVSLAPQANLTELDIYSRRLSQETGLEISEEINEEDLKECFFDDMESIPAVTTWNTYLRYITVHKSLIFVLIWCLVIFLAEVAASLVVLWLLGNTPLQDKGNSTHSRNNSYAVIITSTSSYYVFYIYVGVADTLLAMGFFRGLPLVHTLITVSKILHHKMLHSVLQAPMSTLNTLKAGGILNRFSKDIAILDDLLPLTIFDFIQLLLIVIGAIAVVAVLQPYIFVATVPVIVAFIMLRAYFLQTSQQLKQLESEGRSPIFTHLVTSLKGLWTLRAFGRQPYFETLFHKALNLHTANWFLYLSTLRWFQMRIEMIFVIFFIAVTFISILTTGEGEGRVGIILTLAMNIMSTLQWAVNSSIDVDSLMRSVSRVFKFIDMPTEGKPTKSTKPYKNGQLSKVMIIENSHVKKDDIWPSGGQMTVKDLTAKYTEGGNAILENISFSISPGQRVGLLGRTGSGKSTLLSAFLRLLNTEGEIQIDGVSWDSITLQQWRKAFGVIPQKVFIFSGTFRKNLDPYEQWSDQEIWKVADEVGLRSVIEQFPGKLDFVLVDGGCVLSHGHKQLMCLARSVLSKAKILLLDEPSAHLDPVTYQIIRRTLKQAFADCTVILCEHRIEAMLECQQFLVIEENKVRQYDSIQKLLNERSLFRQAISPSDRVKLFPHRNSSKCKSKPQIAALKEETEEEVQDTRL

Compound	EC50 [µM]	% Activity
CCOC(=O)Nc1cc(NC(=O)c2c[nH]c3ccccc3c2=O)ccc1C(C)(C)C [Compound 127, [5-[(4-oxo-1H-quinolin-3-yl)carbonylamino]-2-tert-butyl-phenyl]aminoformic acid ethyl ester]	< 10	++ (between 25% to 100%)
N#CCc1c[nH]c2cc(NC(=O)c3c[nH]c4ccccc4c3=O)ccc12 [Compound 96, N-[3-(cyanomethyl)-1H-indol-6-yl]-4-oxo-1H-quinoline-3-carboxamide]	< 10	++ (between 25% to 100%)
Cc1ccc2c(=O)c(C(=O)Nc3cc4[nH]ccc4cc3C(F)(F)F)c[nH]c2c1 [Compound 576, 7-methyl-4-oxo-N-[5-(trifluoromethyl)-1H-indol-6-yl]-1H-quinoline-3-carboxamide]	< 10	++ (between 25% to 100%)
O=C(Nc1ccccc1-c1ccc(OC(F)(F)F)cc1)c1c[nH]c2ccccc2c1=O [Compound 388, 4-oxo-N-[2-[4-(trifluoromethoxy)phenyl]phenyl]-1H-quinoline-3-carboxamide]	< 10	++ (between 25% to 100%)
COC(=O)C1CCCCN1c1ccc(NC(=O)c2c[nH]c3ccccc3c2=O)c(C(F)(F)F)c1 (centres unmarked) [Compound 492, methyl 1-[4-[(4-oxo-1H-quinolin-3-yl)carbonylamino]-3-(trifluoromethyl)phenyl]piperidine-2-carboxylate]	< 10	+++ (>100%)
CC(C)(C)c1cc(C(C)(C)C)c(NC(=O)c2c[nH]c3c(C#N)cccc3c2=O)cc1O [Compound 505, 8-cyano-N-(5-hydroxy-2,4-ditert-butyl-phenyl)-4-oxo-1H-quinoline-3-carboxamide]	< 10	+ (<25%)
O=C(Nc1ccc2[nH]c(=O)[nH]c2c1)c1c[nH]c2ccccc2c1=O [Compound 64, 4-oxo-N-(2-oxo-1,3-dihydrobenzoimidazol-5-yl)-1H-quinoline-3-carboxamide]	25 to 60	+ (<25%)
O=C(Nc1ccccc1SC(F)(F)F)c1c[nH]c2ccccc2c1=O [Compound 371, 4-oxo-N-[2-(trifluoromethylsulfanyl)phenyl]-1H-quinoline-3-carboxamide]	< 10	++ (between 25% to 100%)
CCc1ccc(NC(=O)OC)cc1NC(=O)c1c[nH]c2ccccc2c1=O [Compound 249, [4-ethyl-3-[(4-oxo-1H-quinolin-3-yl)carbonylamino]phenyl]aminoformic acid methyl ester]	10 to 25	++ (between 25% to 100%)
N#Cc1cc(N2CCCC2)ccc1NC(=O)c1c[nH]c2ccccc2c1=O [Compound 622, N-(2-cyano-4-pyrrolidin-1-yl-phenyl)-4-oxo-1H-quinoline-3-carboxamide]	< 10	++ (between 25% to 100%)
CC(C)(C)c1cc(Cl)c(O)cc1NC(=O)c1c[nH]c2ccccc2c1=O [Compound 426, N-(4-chloro-5-hydroxy-2-tert-butyl-phenyl)-4-oxo-1H-quinoline-3-carboxamide]	< 10	++ (between 25% to 100%)
O=C(Nc1cc(O)c(Cl)cc1Cl)c1c[nH]c2ccccc2c1=O [Compound 608, N-(2,4-dichloro-5-hydroxy-phenyl)-4-oxo-1H-quinoline-3-carboxamide]	< 10	++ (between 25% to 100%)
O=C(Nc1ccccc1)c1c[nH]c2ccccc2c1=O [Compound 215, 4-Oxo-N-phenyl-1H-quinoline-3-carboxamide]	< 10	++ (between 25% to 100%)
COc1cc(NC(=O)c2c[nH]c3ccccc3c2=O)ccc1-n1c(C)ccc1C [Compound 560, N-[4-(2,5-dimethylpyrrol-1-yl)-3-methoxy-phenyl]-4-oxo-1H-quinoline-3-carboxamide]	< 10	++ (between 25% to 100%)
CCc1ccc(NC(=O)c2c[nH]c3ccccc3c2=O)cc1NC(C)=O [Compound 149, N-(3-acetylamino-4-ethyl-phenyl)-4-oxo-1H-quinoline-3-carboxamide]	10 to 25	++ (between 25% to 100%)
Cc1cccc2c(=O)c(C(=O)Nc3cc(O)c(C(C)(C)C)cc3C(C)(C)C)c[nH]c12 [Compound 621, N-(5-hydroxy-2,4-ditert-butyl-phenyl)-8-methyl-4-oxo-1H-quinoline-3-carboxamide]	< 10	+ (<25%)
CCOC(=O)NC1CCCc2ccc(NC(=O)c3c[nH]c4ccccc4c3=O)cc21 (centres unmarked) [Compound 482, [7-[(4-Oxo-1H-quinolin-3-yl)carbonylamino]tetralin-1-yl]aminoformic acid ethyl ester]	10 to 25	++ (between 25% to 100%)
O=C(Nc1ccncc1)c1c[nH]c2ccccc2c1=O [Compound 53, 4-oxo-N-(4-pyridyl)-1H-quinoline-3-carboxamide]	25 to 60	+ (<25%)

Compound	EC50 [µM]	% Activity
CC(C)(C)c1cc(F)c(NC(=O)c2c[nH]c3ccc(Cl)cc3c2=O)cc1O [Compound 561, 6-chloro-N-(2-fluoro-5-hydroxy-4-tert-butyl-phenyl)-4-oxo-1H-quinoline-3-carboxamide]	< 10	++ (between 25% to 100%)
O=C(Nc1ccc2c(c1)NCC21CC1)c1c[nH]c2ccccc2c1=O [Compound 22, 4-Oxo-1,4-dihydro-quinoline-3-carboxylic acid N-(1′,2′-dihydrospiro[cyclopropane-1,3′-[3H]indol]-6′-yl)-amide]	10 to 25	++ (between 25% to 100%)
O=C(Nc1ccc2c(c1)CCCC2)c1c[nH]c2ccccc2c1=O [Compound 375, 1,4-dihydro-N-(1,2,3,4-tetrahydronaphthalen-6-yl)-4-oxoquinoline-3-carboxamide]	< 10	++ (between 25% to 100%)
Cc1ccc(C#N)c(NC(=O)c2c[nH]c3ccccc3c2=O)c1 [Compound 89, N-(2-cyano-5-methyl-phenyl)-4-oxo-1H-quinoline-3-carboxamide]	25 to 60	+ (<25%)
O=C(Nc1ccccc1-c1ccccc1)c1c[nH]c2ccccc2c1=O [Compound 461, 4-oxo-N-(2-phenylphenyl)-1H-quinoline-3-carboxamide]	< 10	++ (between 25% to 100%)
O=C(Nc1ccc2c(c1)C(O)CCC2)c1c[nH]c2ccccc2c1=O (centres unmarked) [Compound 200, 1,4-dihydro-N-(1,2,3,4-tetrahydro-1-hydroxynaphthalen-7-yl)-4-oxoquinoline-3-carboxamide]	10 to 25	++ (between 25% to 100%)
CC(C)Cc1ccc(-c2ccccc2NC(=O)c2c[nH]c3ccccc3c2=O)cc1 [Compound 391, N-[2-(4-isobutylphenyl)phenyl]-4-oxo-1H-quinoline-3-carboxamide]	< 10	++ (between 25% to 100%)
COc1cccc(NC(=O)c2c[nH]c3ccccc3c2=O)c1 [Compound 408, N-(3-methoxyphenyl)-4-oxo-1H-quinoline-3-carboxamide]	< 10	++ (between 25% to 100%)
CCCOc1ccc(N)cc1NC(=O)c1c[nH]c2ccccc2c1=O [Compound 17, N-(5-Amino-2-propoxy-phenyl)-4-oxo-1H-quinoline-3-carboxamide]	< 10	++ (between 25% to 100%)
CCC(C)c1c[nH]c2cc(NC(=O)c3c[nH]c4ccccc4c3=O)ccc12 (centres unmarked) [Compound 259, 4-oxo-N-(3-sec-butyl-1H-indol-6-yl)-1H-quinoline-3-carboxamide]	< 10	++ (between 25% to 100%)
CC(C)(C)c1c[nH]c2cc(NC(=O)c3c[nH]c4cccc(O)c4c3=O)ccc12 [Compound 535, 5-hydroxy-4-oxo-N-(3-tert-butyl-1H-indol-6-yl)-1H-quinoline-3-carboxamide]	< 10	++ (between 25% to 100%)
Cc1ccc(-c2ccccc2NC(=O)c2c[nH]c3ccccc3c2=O)o1 [Compound 311, N-[2-(5-methyl-2-furyl)phenyl]-4-oxo-1H-quinoline-3-carboxamide]	< 10	++ (between 25% to 100%)
CC(C)(C)c1cc(C(C)(C)C)c(NC(=O)c2c[nH]c3cccc(C(F)(F)F)c3c2=O)cc1O [Compound 520, N-(5-hydroxy-2,4-ditert-butyl-phenyl)-4-oxo-5-(trifluoromethyl)-1H-quinoline-3-carboxamide]	< 10	++ (between 25% to 100%)
O=C(Nc1ccc(Cl)cc1)c1c[nH]c2ccccc2c1=O [Compound 405, N-(4-chlorophenyl)-4-oxo-1H-quinoline-3-carboxamide]	< 10	++ (between 25% to 100%)
O=C(Nc1ccc(N2CCC2)cc1C(F)(F)F)c1c[nH]c2ccccc2c1=O [Compound 689, N-[4-azetidin-1-yl-2-(trifluoromethyl)phenyl]-4-oxo-1H-quinoline-3-carboxamide]	< 10	++ (between 25% to 100%)
CC(C)(C)c1cc(C(C)(C)C)c(NC(=O)c2c[nH]c3ccc(C(F)(F)F)cc3c2=O)cc1O [Compound 515, N-(5-hydroxy-2,4-ditert-butyl-phenyl)-4-oxo-6-(trifluoromethyl)-1H-quinoline-3-carboxamide]	–	+ (<25%)
COc1ccc2[nH]cc(C(=O)Nc3cc(O)c(C(C)(C)C)cc3C(C)(C)C)c(=O)c2c1 [Compound 496, N-(5-hydroxy-2,4-ditert-butyl-phenyl)-6-methoxy-4-oxo-1H-quinoline-3-carboxamide]	< 10	++ (between 25% to 100%)
O=C(Nc1ccc2oc(-c3ccccc3)nc2c1)c1c[nH]c2ccccc2c1=O [Compound 376, 4-oxo-N-(2-phenylbenzooxazol-5-yl)-1H-quinoline-3-carboxamide]	25 to 60	+ (<25%)
